Assay [1] concerns the target T1, G-protein coupled receptor 55 (Homo sapiens, UniProt Q9Y2T6). Put plainly: inhibition of LPI-stimulated GPR55 beta-arrestin translocation – imaging, U2OS, beta-arrestin-GFP, LPI agonist, primary screen (AID 2013).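 Further: antagonist potency measured as reduced agonist-driven arrestin aggregation.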 The assay is classed as functional.
A short description of assay [2]: inhibition of ADAM10 peptide cleavage – biochemical, FRET peptide substrate, recombinant human ADAM10, selectivity assay for ADAM17 exosite inhibitor project, dose response (AID 743259).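 Further: ADAM10 enzyme cleaving a FRET peptide substrate.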
Assay [3] deals with T1, G-protein coupled receptor 55. Put plainly: selective activators of receptor GPR55 – imaging, U2OS cells, beta-arrestin-GFP redistribution, primary screen (AID 1961). Type of assay: functional.
The target of assay [4] is Disintegrin and metalloproteinase domain-containing protein 17 (Homo sapiens, UniProt P78536). The assay is described as follows: exosite inhibitors of ADAM17, dose response, biochemical (AID 743260).
In assay [5] the test system is INS1. Put plainly: INS-1E survival protection against cytokine death – cell-based, luminescence, retest, dose response (AID 449756).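 Further: cell death triggered by IL-1 beta plus TNF-alpha plus IFN-gamma mixture; protective hits raise ATP signal compared with cytokine alone wells.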 The assay is classed as functional. The note with it: Rattus norvegicus, INS1.
The target in assay [6] is T2, Ubiquitin-conjugating enzyme E2 N (Homo sapiens, UniProt P61088).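 Further: Dose-response confirmation in a TR-FRET assay detecting UBC13-driven polyubiquitin chain formation, inhibition measured.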
T2 sequence (P61088 whole entry): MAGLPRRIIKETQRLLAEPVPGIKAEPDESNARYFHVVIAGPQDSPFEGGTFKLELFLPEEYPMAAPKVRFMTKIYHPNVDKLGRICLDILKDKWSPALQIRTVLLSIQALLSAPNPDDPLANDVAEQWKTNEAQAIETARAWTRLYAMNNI
Type of assay: functional.

Assay [7] concerns the target FAD-linked sulfhydryl oxidase ALR (Homo sapiens, UniProt P55789). Put plainly: ALR-catalysed DTT oxidation blockers – biochemical, H2O2 detection, luminescence, cherry-pick, dose response (AID 493248).
Assay [8] is described as follows: THP-1 cell cytotoxicity, dose response, cytotoxicity control for non-replicating M. tuberculosis project (AID 489025). Type of assay: functional.
The nature of assay [9]: cells. Type of assay: functional.
Assay [10] is described as follows: HepG2 cell cytotoxicity, dose response, cytotoxicity control for non-replicating M. tuberculosis project (AID 489018). Type of assay: functional. The following applies: Mycobacterium tuberculosis.
A short description of assay [11]: viability loss in HepG2 hepatoma cells – cell-based, ATP luminescence, cherry-pick, activator set 2, cytotoxicity control, dose response (AID 1053143). Type of assay: functional.
Assay [12] in a line: NIH3T3 cell viability loss – ATP luminescence, mouse fibroblasts, counter-screen, dose response (AID 2010).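 Further: cells exposed to compound for about 90 hours before reading.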 Type of assay: functional, cell-based.
The nature of assay [13]: Vero E6 cell cytotoxicity, dose response, cytotoxicity control for non-replicating M. tuberculosis project, secondary assay (AID 492998). Type of assay: functional, VeroE6. The note with it: Vero C1008.
Assay [14] is described as follows: Trypanosoma cruzi growth suppression in host cells – NIH3T3 host cells, beta-gal luminescence, confirmation (AID 2044).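 Further: intracellular parasites grown in NIH/3T3 mouse fibroblasts as host cells; luminescent beta-galactosidase reporter signal from transgenic T. cruzi replicating inside host cells; inhibitors lower the luminescence signal.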 The assay is classed as functional, cell-based.
The nature of assay [15]: Luminescence Cell-Based Dose Confirmation HTS to Identify Inhibitors of Platelet Dense Granule Release. [Related pubchem assays: 1663 (Primary HTS), 1678 (Summary of Project)]. Type of assay: functional.
Assay [16] concerns the target Eukaryotic translation initiation factor 4E (Mus musculus, UniProt P63073). Put plainly: blockers of eIF4G binding by eIF4E – biochemical, TR-FRET, dose response (AID 855).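 Further: potency for disrupting eIF4E binding to eIF4GI seen as loss of FRET.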 The assay is classed as functional.
Assay [17] has as its target Luciferin 4-monooxygenase (Photinus pyralis, UniProt P08659). Put plainly: inhibition of purified Photinus pyralis luciferase – biochemical, luminescence, dose response (AID 1891).
The target of assay [18] is Trypsin (Sus scrofa, UniProt P00761). Put plainly: trypsin protease activity blockade – biochemical, quenched peptide fluorescence, cherry-pick, selectivity assay for Rce1 protease inhibitor project, dose response (AID 488789).
In assay [19] the target is Peroxisome proliferator-activated receptor gamma/Nuclear receptor coactivator 3 (Homo sapiens, UniProt P37231). Type of assay: functional.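 Further: agonist potency for raising coactivator recruitment to the receptor.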
The target of assay [20] is Peroxisome proliferator-activated receptor gamma/Nuclear receptor coactivator 2 (Homo sapiens, UniProt P37231). Type of assay: functional.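 Further: agonist potency for raising coactivator recruitment to the receptor.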
The target in assay [21] is Peroxisome proliferator-activated receptor gamma/Nuclear receptor coactivator 1 (Homo sapiens, UniProt P37231). The assay is classed as functional.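 Further: agonist potency as compounds enhance coactivator SRC-1 recruitment to PPARgamma.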
In assay [22] the target is Paired box protein Pax-8 (Homo sapiens, UniProt Q06710). The assay is described as follows: PAX8 transcriptional activity inhibition in RMG-I – RMG-I cells, luciferase, cherry-pick, dose response (AID 687027).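 Further: luciferase reporter driven by Pax8 target thyroperoxidase promoter measured by SteadyGlo luminescence.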 Type of assay: functional, cell-based.
Assay [23] can be described thus: Luminescent dose response cell-based high throughput screening assay for inhibitors of the Janus kinase 2 mutant JAK2V617F. [Related pubchem assays: 1446 (Primary screen.), 1521 (Confirmation assay.), 1486 (Counter screen.)]. The assay is classed as functional.
The target of assay [24] is T3, Aminopeptidase N (Plasmodium falciparum FcB1/Columbia, UniProt O96935).
T3 sequence (O96935 whole entry): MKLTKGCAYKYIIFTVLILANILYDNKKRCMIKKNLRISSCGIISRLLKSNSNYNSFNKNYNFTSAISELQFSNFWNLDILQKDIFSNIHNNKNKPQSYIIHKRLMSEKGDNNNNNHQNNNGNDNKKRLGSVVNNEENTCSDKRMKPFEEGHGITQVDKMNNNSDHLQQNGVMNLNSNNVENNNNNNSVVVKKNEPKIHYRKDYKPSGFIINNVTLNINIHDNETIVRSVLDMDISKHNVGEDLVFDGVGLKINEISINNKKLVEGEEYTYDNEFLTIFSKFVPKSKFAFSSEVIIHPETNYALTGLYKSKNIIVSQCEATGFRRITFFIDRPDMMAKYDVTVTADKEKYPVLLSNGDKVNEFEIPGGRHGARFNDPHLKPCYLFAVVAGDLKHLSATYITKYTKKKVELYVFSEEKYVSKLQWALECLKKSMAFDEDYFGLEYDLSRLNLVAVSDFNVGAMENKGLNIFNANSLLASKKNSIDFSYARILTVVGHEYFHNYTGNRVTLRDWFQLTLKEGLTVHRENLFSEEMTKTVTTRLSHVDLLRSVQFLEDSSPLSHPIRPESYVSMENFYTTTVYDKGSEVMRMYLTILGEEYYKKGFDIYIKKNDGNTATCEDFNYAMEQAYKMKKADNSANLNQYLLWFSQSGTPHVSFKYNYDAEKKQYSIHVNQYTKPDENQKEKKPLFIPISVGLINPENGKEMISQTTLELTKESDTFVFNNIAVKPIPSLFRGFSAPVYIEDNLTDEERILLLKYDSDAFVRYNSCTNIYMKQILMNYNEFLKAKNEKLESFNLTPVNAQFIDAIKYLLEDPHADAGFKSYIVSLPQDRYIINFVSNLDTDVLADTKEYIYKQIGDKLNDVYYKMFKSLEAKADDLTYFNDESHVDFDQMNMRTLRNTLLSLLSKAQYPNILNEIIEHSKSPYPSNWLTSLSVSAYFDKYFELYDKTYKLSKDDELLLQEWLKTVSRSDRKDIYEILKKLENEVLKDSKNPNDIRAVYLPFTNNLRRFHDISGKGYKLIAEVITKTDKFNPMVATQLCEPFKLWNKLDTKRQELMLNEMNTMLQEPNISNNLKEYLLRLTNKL
The assay is described as follows: malaria alanyl aminopeptidase activity blockers – biochemical, fluorogenic H-Leu-NHMec substrate, 1536-well (AID 1445). Details: species or system Plasmodium falciparum 3D7, 3D7.

The target of assay [25] is T4, Phosphomannomutase 2 (Homo sapiens, UniProt O15305).
T4 sequence (O15305 whole entry): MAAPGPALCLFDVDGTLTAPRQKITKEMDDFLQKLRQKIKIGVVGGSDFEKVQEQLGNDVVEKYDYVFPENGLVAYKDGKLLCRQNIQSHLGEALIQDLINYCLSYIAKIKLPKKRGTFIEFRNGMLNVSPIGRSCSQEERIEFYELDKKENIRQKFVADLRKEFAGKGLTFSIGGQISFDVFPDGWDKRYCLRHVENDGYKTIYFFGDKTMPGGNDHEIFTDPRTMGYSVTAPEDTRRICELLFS
Put plainly: Counter screen SAR assay for PMM2 inhibitors via a fluorescence intensity assay. [Related pubchem assays (depositor defined):AID1545, AID1574].

Assay [26] addresses T5, Mannose-6-phosphate isomerase (Homo sapiens, UniProt P34949).
T5 sequence (P34949 whole entry): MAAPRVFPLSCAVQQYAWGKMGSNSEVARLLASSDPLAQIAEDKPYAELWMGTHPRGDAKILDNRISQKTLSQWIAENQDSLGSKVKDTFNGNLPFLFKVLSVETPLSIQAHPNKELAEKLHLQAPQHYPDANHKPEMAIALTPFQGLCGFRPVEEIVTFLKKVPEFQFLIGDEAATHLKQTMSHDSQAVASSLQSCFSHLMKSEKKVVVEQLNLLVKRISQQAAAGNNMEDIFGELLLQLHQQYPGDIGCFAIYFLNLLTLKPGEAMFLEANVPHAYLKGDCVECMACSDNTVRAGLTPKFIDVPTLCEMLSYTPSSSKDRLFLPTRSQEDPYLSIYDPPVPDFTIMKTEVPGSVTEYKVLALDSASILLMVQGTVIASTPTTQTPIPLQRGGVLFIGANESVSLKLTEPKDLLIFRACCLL
The assay is described as follows: phosphomannose isomerase inhibition – biochemical, fluorescence intensity, confirmation (AID 1535).

For assay [27], the target named is Phosphoethanolamine/phosphocholine phosphatase (Homo sapiens, UniProt Q8TCT1). The assay is described as follows: SAR assay for compounds that inhibit PHOSPHO1. [Related pubchem assays (depositor defined):AID1545, AID1565, AID1574].
Assay [28] addresses T6, Alkaline phosphatase, tissue-nonspecific isozyme (Homo sapiens, UniProt P05186).
T6 sequence (P05186 whole entry): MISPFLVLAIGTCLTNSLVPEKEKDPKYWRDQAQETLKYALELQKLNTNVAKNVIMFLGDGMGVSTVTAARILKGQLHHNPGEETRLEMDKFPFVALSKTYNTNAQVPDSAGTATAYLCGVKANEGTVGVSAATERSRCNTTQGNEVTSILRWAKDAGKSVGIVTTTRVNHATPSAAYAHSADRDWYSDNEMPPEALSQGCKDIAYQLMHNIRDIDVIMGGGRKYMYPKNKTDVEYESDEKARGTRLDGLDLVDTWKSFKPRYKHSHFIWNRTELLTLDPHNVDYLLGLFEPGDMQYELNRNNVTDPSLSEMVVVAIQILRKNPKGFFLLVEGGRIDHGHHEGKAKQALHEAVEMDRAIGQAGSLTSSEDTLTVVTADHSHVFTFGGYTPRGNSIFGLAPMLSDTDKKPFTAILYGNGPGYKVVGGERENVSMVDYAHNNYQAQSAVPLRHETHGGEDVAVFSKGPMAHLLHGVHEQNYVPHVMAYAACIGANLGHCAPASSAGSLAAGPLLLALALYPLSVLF
Put plainly: potency against alkaline phosphatase TNAP – biochemical, luminescent, dose response, SAR follow-up (AID 1056).

Active and inactive are the calls of the source.

T1 sequence (Q9Y2T6 whole entry): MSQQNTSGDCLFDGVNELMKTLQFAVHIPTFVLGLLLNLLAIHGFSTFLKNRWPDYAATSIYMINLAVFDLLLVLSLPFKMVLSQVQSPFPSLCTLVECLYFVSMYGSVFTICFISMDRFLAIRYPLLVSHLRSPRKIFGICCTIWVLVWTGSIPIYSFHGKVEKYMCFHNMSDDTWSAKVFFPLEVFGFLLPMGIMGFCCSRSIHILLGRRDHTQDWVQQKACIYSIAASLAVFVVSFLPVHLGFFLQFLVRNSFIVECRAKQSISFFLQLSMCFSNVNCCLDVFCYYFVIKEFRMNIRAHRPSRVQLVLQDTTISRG
Chain of Phosphoethanolamine/phosphocholine phosphatase (Q8TCT1 whole entry): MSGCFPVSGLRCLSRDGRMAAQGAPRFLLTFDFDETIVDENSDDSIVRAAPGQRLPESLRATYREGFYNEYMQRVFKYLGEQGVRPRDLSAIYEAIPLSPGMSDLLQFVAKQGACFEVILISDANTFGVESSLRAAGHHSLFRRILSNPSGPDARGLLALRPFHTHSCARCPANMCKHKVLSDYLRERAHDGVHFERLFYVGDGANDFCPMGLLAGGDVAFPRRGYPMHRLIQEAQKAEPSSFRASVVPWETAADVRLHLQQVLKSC
Chain of Peroxisome proliferator-activated receptor gamma/Nuclear receptor coactivator 2 (P37231 whole entry): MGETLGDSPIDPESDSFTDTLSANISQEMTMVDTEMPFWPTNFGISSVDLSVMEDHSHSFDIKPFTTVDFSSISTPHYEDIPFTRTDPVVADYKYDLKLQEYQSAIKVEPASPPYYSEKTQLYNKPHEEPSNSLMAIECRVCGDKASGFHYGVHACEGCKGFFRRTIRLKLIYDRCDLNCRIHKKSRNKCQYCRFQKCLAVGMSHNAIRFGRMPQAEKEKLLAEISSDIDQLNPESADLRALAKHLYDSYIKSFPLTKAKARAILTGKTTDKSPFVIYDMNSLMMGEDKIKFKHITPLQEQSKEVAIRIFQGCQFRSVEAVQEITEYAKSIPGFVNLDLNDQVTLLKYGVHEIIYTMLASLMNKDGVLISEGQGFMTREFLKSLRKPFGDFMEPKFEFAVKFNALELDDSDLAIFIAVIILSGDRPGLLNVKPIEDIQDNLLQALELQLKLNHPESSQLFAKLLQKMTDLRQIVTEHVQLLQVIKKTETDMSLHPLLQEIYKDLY
Chain of Peroxisome proliferator-activated receptor gamma/Nuclear receptor coactivator 2 (Q15596 whole entry, further chain): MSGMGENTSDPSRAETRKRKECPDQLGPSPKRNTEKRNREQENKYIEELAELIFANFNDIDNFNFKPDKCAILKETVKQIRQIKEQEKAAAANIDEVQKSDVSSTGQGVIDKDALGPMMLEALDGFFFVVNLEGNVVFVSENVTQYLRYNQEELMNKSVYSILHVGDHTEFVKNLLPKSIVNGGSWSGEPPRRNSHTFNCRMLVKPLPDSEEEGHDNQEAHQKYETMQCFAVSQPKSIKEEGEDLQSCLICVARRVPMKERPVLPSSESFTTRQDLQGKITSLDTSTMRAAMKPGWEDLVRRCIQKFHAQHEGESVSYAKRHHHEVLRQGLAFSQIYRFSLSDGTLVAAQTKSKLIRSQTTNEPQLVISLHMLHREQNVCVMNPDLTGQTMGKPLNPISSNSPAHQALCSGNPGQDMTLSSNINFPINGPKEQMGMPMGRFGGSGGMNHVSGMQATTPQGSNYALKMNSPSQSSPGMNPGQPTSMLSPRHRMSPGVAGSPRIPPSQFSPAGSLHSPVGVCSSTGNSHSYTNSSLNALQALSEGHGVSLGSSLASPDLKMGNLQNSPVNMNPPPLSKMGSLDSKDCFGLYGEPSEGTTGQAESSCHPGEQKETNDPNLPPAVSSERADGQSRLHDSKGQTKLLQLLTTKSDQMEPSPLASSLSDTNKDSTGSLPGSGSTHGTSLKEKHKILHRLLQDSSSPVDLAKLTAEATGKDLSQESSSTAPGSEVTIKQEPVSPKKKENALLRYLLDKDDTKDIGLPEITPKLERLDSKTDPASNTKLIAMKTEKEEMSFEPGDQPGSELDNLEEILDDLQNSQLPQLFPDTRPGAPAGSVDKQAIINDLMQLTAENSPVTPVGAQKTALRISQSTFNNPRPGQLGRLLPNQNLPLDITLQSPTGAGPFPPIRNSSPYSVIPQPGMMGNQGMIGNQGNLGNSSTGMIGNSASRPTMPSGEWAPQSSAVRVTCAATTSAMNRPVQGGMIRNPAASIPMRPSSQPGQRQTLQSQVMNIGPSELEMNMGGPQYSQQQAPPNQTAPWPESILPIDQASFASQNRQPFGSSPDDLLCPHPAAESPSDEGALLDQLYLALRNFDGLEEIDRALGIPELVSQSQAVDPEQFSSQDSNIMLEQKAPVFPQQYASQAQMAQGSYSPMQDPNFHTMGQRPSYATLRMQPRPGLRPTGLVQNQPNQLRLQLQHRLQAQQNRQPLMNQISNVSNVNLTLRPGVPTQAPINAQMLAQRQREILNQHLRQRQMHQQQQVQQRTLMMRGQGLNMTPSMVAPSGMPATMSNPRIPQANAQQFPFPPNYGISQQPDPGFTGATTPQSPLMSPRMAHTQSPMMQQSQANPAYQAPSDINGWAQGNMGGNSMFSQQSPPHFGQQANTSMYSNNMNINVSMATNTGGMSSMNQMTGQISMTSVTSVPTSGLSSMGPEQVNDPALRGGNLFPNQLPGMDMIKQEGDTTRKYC
Chain of Peroxisome proliferator-activated receptor gamma/Nuclear receptor coactivator 1 (P37231 whole entry): as the sequence (P37231 whole entry) above
Chain of Peroxisome proliferator-activated receptor gamma/Nuclear receptor coactivator 1 (Q15788 whole entry, further chain): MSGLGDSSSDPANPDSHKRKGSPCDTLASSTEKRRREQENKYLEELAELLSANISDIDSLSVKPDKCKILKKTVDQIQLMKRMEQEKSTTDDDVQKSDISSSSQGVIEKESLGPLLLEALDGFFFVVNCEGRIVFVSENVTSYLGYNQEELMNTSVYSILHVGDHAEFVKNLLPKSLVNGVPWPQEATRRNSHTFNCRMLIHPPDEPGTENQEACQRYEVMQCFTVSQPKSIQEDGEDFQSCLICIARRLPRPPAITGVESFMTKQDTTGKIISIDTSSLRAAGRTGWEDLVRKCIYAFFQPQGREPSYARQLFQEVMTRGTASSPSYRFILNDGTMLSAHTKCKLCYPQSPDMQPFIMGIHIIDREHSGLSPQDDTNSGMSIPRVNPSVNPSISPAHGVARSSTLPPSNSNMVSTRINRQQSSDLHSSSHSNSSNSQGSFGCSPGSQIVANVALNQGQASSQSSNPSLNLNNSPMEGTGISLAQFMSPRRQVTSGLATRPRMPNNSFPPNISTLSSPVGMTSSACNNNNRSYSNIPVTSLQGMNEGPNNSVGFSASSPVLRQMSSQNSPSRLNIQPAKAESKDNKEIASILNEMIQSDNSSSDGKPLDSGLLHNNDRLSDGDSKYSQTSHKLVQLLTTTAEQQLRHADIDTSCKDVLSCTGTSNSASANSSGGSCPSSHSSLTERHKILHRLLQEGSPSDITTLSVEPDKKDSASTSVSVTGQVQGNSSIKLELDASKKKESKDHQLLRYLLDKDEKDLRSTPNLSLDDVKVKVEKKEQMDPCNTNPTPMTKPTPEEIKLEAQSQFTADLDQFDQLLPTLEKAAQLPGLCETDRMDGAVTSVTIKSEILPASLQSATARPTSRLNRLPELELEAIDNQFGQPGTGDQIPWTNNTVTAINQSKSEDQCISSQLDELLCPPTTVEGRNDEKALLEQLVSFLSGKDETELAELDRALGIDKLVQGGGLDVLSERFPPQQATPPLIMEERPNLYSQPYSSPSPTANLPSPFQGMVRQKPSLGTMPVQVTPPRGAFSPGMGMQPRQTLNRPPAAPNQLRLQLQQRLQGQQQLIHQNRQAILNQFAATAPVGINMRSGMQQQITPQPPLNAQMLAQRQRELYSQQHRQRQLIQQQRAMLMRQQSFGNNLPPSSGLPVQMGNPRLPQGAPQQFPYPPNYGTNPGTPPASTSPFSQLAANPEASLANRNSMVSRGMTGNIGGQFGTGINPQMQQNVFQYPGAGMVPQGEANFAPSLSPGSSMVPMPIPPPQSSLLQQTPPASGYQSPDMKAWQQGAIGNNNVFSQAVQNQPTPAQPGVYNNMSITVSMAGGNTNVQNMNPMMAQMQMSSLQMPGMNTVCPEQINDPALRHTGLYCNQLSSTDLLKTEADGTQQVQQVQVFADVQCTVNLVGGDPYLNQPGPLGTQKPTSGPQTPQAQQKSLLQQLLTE
Chain of Trypsin (P00761 whole entry): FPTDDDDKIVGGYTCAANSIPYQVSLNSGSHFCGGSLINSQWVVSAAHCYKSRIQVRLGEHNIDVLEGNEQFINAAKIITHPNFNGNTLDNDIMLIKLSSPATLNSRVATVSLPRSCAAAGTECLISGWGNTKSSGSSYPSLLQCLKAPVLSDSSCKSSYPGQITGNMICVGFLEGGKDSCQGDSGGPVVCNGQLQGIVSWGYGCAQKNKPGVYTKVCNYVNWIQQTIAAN
Chain of FAD-linked sulfhydryl oxidase ALR (P55789 whole entry): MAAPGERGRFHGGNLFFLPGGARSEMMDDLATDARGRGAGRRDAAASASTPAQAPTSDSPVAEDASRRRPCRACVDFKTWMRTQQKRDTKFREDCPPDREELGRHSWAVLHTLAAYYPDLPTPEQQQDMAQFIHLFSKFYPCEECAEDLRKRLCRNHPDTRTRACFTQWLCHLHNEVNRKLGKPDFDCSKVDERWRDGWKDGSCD

For the molecule `CCOC(=O)c1cc(C#N)c(Oc2ccccc2)nc1-c1ccccc1`, the concentration for half-maximal inhibition (IC50) in assay [1] was 1.69 µM (active).

As for `Cc1ccc(C(=O)N2CCN(C3c4cccc5cccc(c45)C3NS(=O)(=O)c3ccccc3)CC2)cc1` (stereo not given), the IC50 in [2] and in [4] was > 69.5 µM (inactive) each time. In [3], the EC50 was 3.68 µM (active).

For `CN(C)CCCNc1cc(C(C)(C)C)nc2c(-c3ccccc3)cnn12`, the AC50 in assay [5] is 13.8 µM (active); in [7] it was 2.53 µM (active); in assay [11], 15.5 µM (active). Further, the IC50 was > 20 µM (inactive) in assay [6] and 19.8 µM (active) in [9]. Moreover, the half-maximal cytotoxic concentration (CC50) in assay [8] is 24.5 µM (active); in assay [10], > 20 µM (active); in assay [13] it was > 20 µM (active). For the same molecule, the 50% effective concentration (EC50) in [12] is 4.96 µM (active); in assay [14] it was 0.574 µM (active).

On to `COc1ccc(-c2nc(-c3ccc(Br)cc3)no2)c(OC)c1`, for which the EC50 in assay [15] and in assay [17] was > 112 µM (not active) in each case. Further, in [16], the IC50 is > 64 µM (inactive).

In the case of `CCCOc1ccc(/C=C2/C(=O)ON=C2C)cc1Cl`, the EC50 in [3] was > 32 µM (inactive).

`Cc1ccc(-c2cc(-c3ccccc3)c(C#N)c(Br)n2)cc1`: the AC50 in assay [18] is 11.9 µM (active). Also, the 50% effective concentration (EC50) is 58.2 µM (not active) in assay [19], 34.1 µM (not active) in assay [20] and 58.7 µM (not active) in assay [21].

Take `O=C(Nc1cccc(NC(=O)c2cccs2)c1)c1ccc([N+](=O)[O-])o1`: the half-maximal cytotoxic concentration (CC50) in assay [8] was 7.45 µM (active); in assay [10], 11 µM (active); in [13], 11.9 µM (active). In [22], the AC50 was 4.04 µM (active). Also, the IC50 is 4.05 µM (active) in [9], 1.57 µM (active) in assay [23] and 49.8 µM (active) in assay [24]. Also, the EC50 is > 60 µM (not active) in assay [12] and 0.104 µM (active) in [14].

Turning to `O=c1c2ccccc2sn1-c1ccc(Cl)c(S(=O)(=O)N2CCOCC2)c1`, the IC50 in assay [25] is 55.3 µM (active); in [26], 8.58 µM (active); in assay [27], 1.07 µM (inactive); in assay [28], > 100 µM (inactive).

The values above are taken from ChEMBL document CHEMBL1201862, “PubChem BioAssay data set” (2004).
